In US9765035B2 (priority 2013, dated 2017):
Like-named read-outs stand apart in the source and are kept apart here.

Target: human PRMT6 (Homo sapiens, UniProt Q96LA8)
Assay: biochemical
Description: General Materials. S-adenosylmethionine (SAM), S-adenosylhomocysteine (SAH), bicine, Tween20, dimethylsulfoxide (DMSO), bovine skin gelatin (BSG), sodium butyrate and Tris(2-carboxyethyl)phosphine hydrochloride solution (TCEP) were purchased from Sigma-Aldrich at the highest level of purity possible. ^3H-SAM was purchase from American Radiolabeled Chemicals with a specific activity of 80 Ci/mmol. 384-well streptavidin Flashplates were purchased from PerkinElmer.
Substrates. Peptide representative of human histone H4 residues 36-50 was synthesized with an N-terminal linker-affinity tag motif and a C-terminal amide cap by 21st Century Biochemicals. The peptide was purified by high-performance liquid chromatography (HPLC) to greater than 95% purity and confirmed by liquid chromatography mass spectrometry (LC-MS). The sequence was Biot-Ahx-[…]-amide and contained a monomethylated lysine at position 44 (SEQ ID NO.:5).
Molecular Biology: Full-length human PRMT6 (NM_018137.2) transcript clone was amplified from an HEK 293 cDNA library, incorporating a flanking 5′ sequence encoding a FLAG tag ([…]) (SEQ ID NO.:6) fused directly to Ser 2 of PRMT6 and a 3′ sequence encoding a hexa His sequence (HHHHHH) (SEQ ID NO.: 17) fused directly to Asp 375. The amplified gene was subcloned into pFastBacMam (Viva Biotech).
Protein Expression. Recombinant baculovirus were generated according to Bac-to-Bac kit instructions (Life Technologies). […] Infections were carried out at 37° C. for 48 hours, harvested by centrifugation, and stored at −80° C. for purification.
Protein Purification. […] Column was washed with 20 mM imidazole in the same buffer and Flag-PRMT6-His was eluted with 150 mM imidazole. Pooled fractions were dialysed against buffer Ni-A and further purified by anti-flag M2 affinity chromatography. Flag-PRMT6-His was eluted with 200 ug/ml FLAG peptide in the same buffer. Pooled fractions were dialysed in 20 mM Tris, 150 mM NaCl, 10% glycerol and 5 mM β-mercaptoethanol, pH 7.8. The purity of recovered protein was 95%.
General Procedure for PRMT6 Enzyme Assays on Peptide Substrates. The assays were all performed in a buffer consisting of 20 mM Bicine (pH=7.6), 1 mM TCEP, 0.005% BSG, and 0.002% Tween 20, prepared on the day of use. Compounds in 100% DMSO (1 ul) were spotted into a polypropylene 384-well V-bottom plates (Greiner) using a Platemate Plus outfitted with a 384-channel head (Thermo Scientific). DMSO (1 ul) was added to Columns 11, 12, 23, 24, rows A-H for the maximum signal control and 1 ul of SAH, a known product and inhibitor of PRMT6, was added to columns 11, 12, 23, 24, rows I-P for the minimum signal control. A cocktail (40 ul) containing the PRMT6 enzyme was added by Multidrop Combi (Thermo-Fisher). The compounds were allowed to incubate with PRMT6 for 30 min at room temperature, then a cocktail (10 ul) containing SAM and peptide was added to initiate the reaction (final volume=51 ul). The final concentrations of the components were as follows: PRMT6 was 1 nM, ^3H-SAM was 200 nM, non-radiolabeled SAM was 250 nM, peptide was 75 nM, SAH in the minimum signal control wells was 1 mM, and the DMSO concentration was 2%. The assays were stopped by the addition of non-radiolabeled SAM (10 ul) to a final concentration of 400 uM, which dilutes the ^3H-SAM to a level where its incorporation into the peptide substrate is no longer detectable. 50 ul of the reaction in the 384-well polypropylene plate was then transferred to a 384-well Flashplate and the biotinylated peptides were allowed to bind to the streptavidin surface for at least 1 hour before being washed once with 0.1% Tween20 in a Biotek EL×405 plate washer. The plates were then read in a PerkinElmer TopCount plate reader to measure the quantity of ^3H-labeled peptide bound to the Flashplate surface, measured as disintegrations per minute (dpm) or alternatively, referred to as counts per minute (cpm). […]

[1] = biochemical evaluation, peptide substrate, read-out: PRMT6 IC50
[2] = single experiment or average of multiple experiments, read-out: PRMT6 biochemical evaluation (numerical)

Chain of human PRMT6 (Q96LA8 with tags, fused parts or gaps): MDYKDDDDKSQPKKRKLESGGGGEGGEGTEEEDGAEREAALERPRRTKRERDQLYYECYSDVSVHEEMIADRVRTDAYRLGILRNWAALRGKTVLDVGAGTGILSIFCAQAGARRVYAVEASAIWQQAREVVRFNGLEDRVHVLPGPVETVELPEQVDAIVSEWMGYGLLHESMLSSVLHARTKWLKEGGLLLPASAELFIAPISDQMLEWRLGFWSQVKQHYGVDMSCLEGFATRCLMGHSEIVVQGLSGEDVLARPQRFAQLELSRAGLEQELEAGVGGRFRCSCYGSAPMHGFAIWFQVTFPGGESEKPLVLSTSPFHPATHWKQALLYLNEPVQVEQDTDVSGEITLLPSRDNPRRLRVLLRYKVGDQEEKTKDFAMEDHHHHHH

| Compound | IC50 [1] | IC50 [2] | IC50 | IC50 (PRMT6 biochemical evaluation (numerical), single experiment or average of multiple experiments) |
| --- | --- | --- | --- | --- |
| CNCCN(C)Cc1n[nH]c2ccc(OCc3cccc(C(N)=O)c3)cc12 [Compound 66] | < 100 nM | 56.4 nM | – | – |
| CNCCN(C)Cc1n[nH]c2ccc(Oc3cccc(C#N)c3)cc12 [Compound 28] | 101 to 1000 nM | 150 nM | – | – |
| CNCCN(C)Cc1n[nH]c2ccc(OCc3ccc(C(C)(C)C)cc3)cc12 [Compound 71] | < 100 nM | 13.1 nM | – | – |
| CNCCN(C)Cc1n[nH]c2ccc(OC3CCN(C(C)=O)CC3)cc12 [Compound 58, 1-(4-((3-((methyl(2-(methylamino)ethyl)amino)methyl)-1H-indazol-5-yl)oxy)piperidin-1-yl)ethan-1-one] | 101 to 1000 nM | 447 nM | – | – |
| CNCCN(C)Cc1n[nH]c2ccc(O)cc12 [Compound 36, 3-((methyl(2-(methylamino)ethyl)amino)methyl)-1H-indazol-5-ol] | 1010 to 3000 nM | 6670 nM | – | – |
| CNCCN(C)Cc1n[nH]c2ccc(OCCOC)cc12 [Compound 5, N^1-((5-(2-methoxyethoxy)-1H-indazol-3-yl)methyl)-N^1,N^2-dimethylethane-1,2-diamine] | < 100 nM | 84.8 nM | – | – |
| CNCCN(C)Cc1nn(C)c2ccc(OCc3ccc(C#N)cc3)cc12 [Compound 32] | < 100 nM | 156 nM | – | – |
| CNCCN(C)Cc1n[nH]c2ccc(C3CCCCC3)cc12 [Compound 47, N^1-((5-cyclohexyl-1H-indazol-3-yl)methyl)-N^1,N^2-dimethylethane-1,2-diamine] | < 100 nM | 74.3 nM | – | – |
| CNCCN(C)Cc1n[nH]c2ccc(OCCC(C)C)cc12 [Compound 8] | < 100 nM | 56 nM | – | – |
| CNCCN(C)Cc1n[nH]c2ccc(N3CCC4(CCCCC4)CC3)cc12 [Compound 43, N^1-((5-(3-azaspiro[5.5]undecan-3-yl)-1H-indazol-3-yl)methyl)-N^1,N^2-dimethylethane-1,2-diamine] | – | – | < 100 nM | 1800 nM |
| CNCCN(C)Cc1nn(C2CCN(C(C)=O)CC2)c2ccc(OCc3ccc(C#N)cc3)cc12 [Compound 38] | 101 to 1000 nM | 1870 nM | – | – |
| CNCCN(C)Cc1n[nH]c2ccc(OC3CCCC3)cc12 [Compound 11] | < 100 nM | 9.68 nM | – | – |
| CNCCN(C)Cc1n[nH]c2ccc(C3=CCCCC3)cc12 [Compound 48] | < 100 nM | 65.6 nM | – | – |
| CNCCN(C)Cc1n[nH]c2ccc(OC(C)Cc3ccccc3)cc12 (stereo not drawn) [Compound 9] | < 100 nM | 13.9 nM | – | – |
| CNCCN(C)Cc1n[nH]c2ccc(OC)cc12 [Compound 35] | 3010 to 10000 nM | 35.7 nM | – | – |
| CNCCN(C)Cc1n[nH]c2ccc(Oc3ccc(OC(C)C)cc3)cc12 [Compound 61] | 101 to 1000 nM | 236 nM | – | – |
| CNCCN(C)Cc1n[nH]c2ccc(OCc3ccc(C(N)=O)cc3)cc12 [Compound 69] | < 100 nM | 34.2 nM | – | – |
| CNCCN(C)Cc1n[nH]c2ccc(OCCc3ccccc3)cc12 [Compound 7] | < 100 nM | 6.78 nM | – | – |
| CNCCN(C)Cc1n[nH]c2ccc(OCc3ccc(C#N)cc3)cc12 [Compound 13] | < 100 nM | 4.47 nM | – | – |
| CNCCN(C)Cc1n[nH]c2cccc(OCCC(O)CO)c12 (stereo not drawn) [Compound 40] | 1010 to 3000 nM | 223 nM | – | – |
| CNCCN(C)Cc1n[nH]c2ccc(OCc3ccccn3)cc12 [Compound 12] | < 100 nM | 44.1 nM | – | – |
| CNCCN(C)Cc1n[nH]c2ccc(Oc3ccc(C)cc3)cc12 [Compound 55] | 101 to 1000 nM | 1020 nM | – | – |
| CNCCN(C)Cc1n[nH]c2ccc(OCc3ccn(CC(C)C)n3)cc12 [Compound 33] | < 100 nM | 1110 nM | – | – |
| CNCCN(C)Cc1n[nH]c2ccc(Oc3ccccc3OC(C)C)cc12 [Compound 56] | 101 to 1000 nM | 774 nM | – | – |
